This note sets out measurements from PubChem BioAssay (NCI).

Where “and” joins values, the source holds several entries; their conditions need not be identical. Identical values can stand only once.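 Following 48 hours of exposure in 96-well plates, responses at five concentrations were used to interpolate endpoints linearly. GI50: concentration for 50% inhibition of growth. Definition used: TGI = concentration required for complete inhibition of growth.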

Among the test systems are SNB-78 CNS; DMS 273 small cell lung; M19-MEL melanoma; DLD-1 colon; LXFL 529 NSCLC; RXF-631 renal.
Common to all, as to assay: NCI tumour cell line growth inhibition, 48 h

Turning to `CC1C(=O)OC2CC[N+]3(CC(=O)c4ccc(Br)cc4)CC=C(COC(=O)C(C)(O)C1(C)O)C23` (centres undefined), the TGI in the experiment on SNB-78 CNS was over 174 µM; in the experiment with DMS 273 small cell lung, over 375 µM; in the experiment on M19-MEL melanoma, over 375 µM; with DLD-1 colon it was over 375 µM.
Regarding `N#C[S-].[Nd+3].c1cnc2c(c1)ccc1cccnc12.c1cnc2c(c1)ccc1cccnc12.c1cnc2c(c1)ccc1cccnc12`, in the experiment on M19-MEL melanoma, the GI50 is 0.566 µM and the TGI stood at 3.63 µM. Moreover, in the experiment with LXFL 529 NSCLC, the GI50 was 1.84 µM and the TGI was found to be 14.8 µM.
Regarding `Cc1cc(NC(=S)Nc2ccccc2)c(NC(=S)Nc2ccccc2)cc1C`, the TGI in the experiment with DMS 273 small cell lung, in the experiment on M19-MEL melanoma and with DLD-1 colon was over 100 µM in each case.
On to `CC1=C(C)C(=O)O[C@@H]([C@](C)(O)[C@]2(O)CC[C@@]3(O)[C@@H]4C[C@H]5O[C@]56[C@@H](O)C=CC(=O)[C@]6(C)[C@H]4CC[C@]23C)C1`, for which, in the experiment with DMS 273 small cell lung, the GI50 was 1.5 µM and 0.252 µM; the TGI was 5.32 µM and 3.13 µM. Moreover, in the experiment with DLD-1 colon, the GI50 was 0.666 µM and 0.162 µM; the TGI was 3.36 µM and 3.89 µM.
`COC(=O)CCC(=O)CC(=O)C1=NS(=O)(=O)c2nc(S(N)(=O)=O)c(Cl)cc2N1`: the TGI in the experiment with DMS 273 small cell lung, with RXF-631 renal, in the experiment on M19-MEL melanoma, with DLD-1 colon and with LXFL 529 NSCLC was over 100 µM each time.
For the compound `C[n+]1c2ccccc2c(CNc2ccc(S(=O)(=O)N=C(N)N)cc2)c2ccccc21`, the TGI in the experiment with SNB-78 CNS amounted to 78.1 µM; in the experiment with DMS 273 small cell lung it was 24.2 µM; in the experiment on M19-MEL melanoma, 42 µM; with DLD-1 colon, 65.5 µM.
